# Test results published in ChEMBL document CHEMBL3774347, “Docking and Linking of Fragments To Discover Jumonji Histone Demethylase Inhibitors” (J Med Chem, 2016).
# Active and inactive are the calls of the source. No cut-off for these calls is given here.
# Molecular target: T1, Lysine-specific demethylase 4C (Homo sapiens) (UniProt Q9H3R0)
# T1 sequence (whole entry): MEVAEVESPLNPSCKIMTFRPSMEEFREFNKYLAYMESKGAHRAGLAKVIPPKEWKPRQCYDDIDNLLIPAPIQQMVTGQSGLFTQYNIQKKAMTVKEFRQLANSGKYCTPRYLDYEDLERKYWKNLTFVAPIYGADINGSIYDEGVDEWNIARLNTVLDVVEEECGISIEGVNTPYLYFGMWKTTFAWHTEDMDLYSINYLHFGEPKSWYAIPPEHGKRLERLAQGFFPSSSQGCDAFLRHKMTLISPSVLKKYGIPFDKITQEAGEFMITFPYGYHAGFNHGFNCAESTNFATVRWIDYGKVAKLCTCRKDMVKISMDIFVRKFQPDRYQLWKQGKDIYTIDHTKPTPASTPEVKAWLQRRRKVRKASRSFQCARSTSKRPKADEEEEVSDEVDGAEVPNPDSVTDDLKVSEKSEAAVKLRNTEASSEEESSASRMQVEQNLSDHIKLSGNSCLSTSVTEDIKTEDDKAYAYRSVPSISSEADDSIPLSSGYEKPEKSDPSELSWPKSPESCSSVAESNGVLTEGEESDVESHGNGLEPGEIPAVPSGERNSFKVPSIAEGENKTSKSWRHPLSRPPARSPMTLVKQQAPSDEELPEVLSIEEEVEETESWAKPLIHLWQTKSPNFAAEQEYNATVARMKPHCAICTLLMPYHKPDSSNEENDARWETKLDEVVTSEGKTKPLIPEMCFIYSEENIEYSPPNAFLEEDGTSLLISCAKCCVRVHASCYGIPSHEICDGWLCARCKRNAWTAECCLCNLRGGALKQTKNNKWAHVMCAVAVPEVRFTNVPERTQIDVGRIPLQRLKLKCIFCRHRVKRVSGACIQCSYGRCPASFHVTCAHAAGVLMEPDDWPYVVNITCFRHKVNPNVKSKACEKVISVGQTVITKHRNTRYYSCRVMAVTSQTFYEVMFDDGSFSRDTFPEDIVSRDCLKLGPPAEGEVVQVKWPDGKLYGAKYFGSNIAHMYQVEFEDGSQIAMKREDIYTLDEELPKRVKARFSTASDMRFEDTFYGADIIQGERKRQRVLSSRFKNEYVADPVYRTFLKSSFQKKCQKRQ
# Assay: Binding affinity to N-terminal His6-tagged KDM4C (1 to 352 residues) (unknown origin) expressed in Escherichia coli Rosetta 2(DE3)pLysS at 1.7 mM by SYPRO Orange dye based thermal shift assay
# Settings: not given
row,Activity,SMILES
1,Active,Cc1ccccc1CNc1ccc(O)c(C(=O)O)c1

# Tested on: not listed separately
# Assay: Inhibition of AmpC beta-lactamase (unknown origin)
# Settings: not given
row,inhibition,SMILES
1,inactive,Cc1ccccc1CNc1ccc(O)c(C(=O)O)c1

# Molecular target: T2, Lysine-specific demethylase 4C (Homo sapiens, UniProt Q9H3R0)
# T2 sequence (Q9H3R0 whole entry): T1 sequence (whole entry)
# Assay: Inhibition of N-terminal His6-tagged KDM4C (1 to 352 residues) (unknown origin) expressed in Escherichia coli Rosetta 2(DE3)pLysS using biotinylated histone H3 (1 to 21 residues) lysine 9 trimethylated peptide/50 uM alpha-ketoglutarate as substrate/cofactor measured after 45 mins by TR-FRET assay
# Settings: not given
row,IC50,SMILES
1,Not Active,CC(=O)Nc1ccc(O)c(-c2ccccn2)c1

# Same assay, conditions: read-out: IC50
row,SMILES,IC50 [µM]
1,COc1ccc(CC(=O)Nc2ccc(O)c(-c3cc(C(=O)O)ccn3)c2)cc1,3.7
2,O=C(Cc1ccccc1)Nc1ccc(O)c(-c2cc(C(=O)O)ccn2)c1,17
3,O=C(Cc1cccc(Br)c1)Nc1ccc(O)c(-c2cc(C(=O)O)ccn2)c1,3.4

# Molecular target: T1, Lysine-specific demethylase 4C (Homo sapiens)
# Assay: (§1) Inhibition of N-terminal His6-tagged KDM4C (1 to 352 residues) (unknown origin) expressed in Escherichia coli Rosetta 2(DE3)pLysS using biotinylated histone H3 (1 to 21 residues) lysine 9 trimethylated peptide/2 uM alpha-ketoglutarate as substrate/cofactor measured after 45 mins by TR-FRET assay
# Settings: not given
row,inhibition,SMILES
1,inactive,CC(=O)Nc1ccc(O)c(C(=O)O)c1

# Molecular target: T2, Lysine-specific demethylase 4C
# Assay: as §1
# Settings: not given
row,IC50,SMILES
1,Not Active,CC(=O)Nc1ccc(O)c(-c2ccccn2)c1

# Same assay, conditions: read-out: IC50
row,SMILES,IC50 [µM]
1,CC(=O)c1ccccc1-c1cc(C(=O)O)ccn1,507
2,O=C(O)c1ccnc(-c2cc(NCc3ccc(Br)cc3)ccc2O)c1,2.5
3,O=C(O)CNC(=O)c1ccc2ccccc2n1,2810
4,Cn1nccc1CNc1ccc(O)c(-c2cc(C(=O)O)ccn2)c1,0.77
5,Cn1nccc1CNc1ccc(O)c(C(=O)O)c1,58
6,O=C(O)c1ccnc(-c2cc(NC(=O)c3ccccc3O)ccc2O)c1,4.6
7,CN1CCN(C(=O)c2ccn(CC(=O)O)n2)CC1,387
8,COCC(=O)Nc1ccc(O)c(C(=O)O)c1,98
9,NC(=O)N[C@@H](Cc1c[nH]c2ccccc12)C(=O)O,18.6
10,CCNC(=S)Nc1ccc(O)c(C(=O)O)c1,165
11,N#Cc1ccc(O)c(-c2cc(C(=O)O)ccn2)c1,6
12,O=C(O)c1ccnc(-c2cc(NC(=O)c3ccno3)ccc2O)c1,1.02
13,NC(=O)N[C@H](Cc1c[nH]c2ccccc12)C(=O)O,54.7
14,O=C(O)c1cc(NCc2cccc3c2OCO3)ccc1O,15
15,CC(=O)N[C@@H](CCC(=O)O)C(=O)O,2070
16,Cc1cc(O)c2c(CC(=O)O)cc(=O)oc2c1,176
17,CCCNC(=O)NC(C)(C)C(=O)O,126
18,C[C@@H](NC(=O)c1cc(Cl)ccn1)C(=O)O,1210
19,O=C(O)[C@@H]1CC(=O)N(c2nccs2)C1,676
20,COc1ccc(CC(=O)Nc2ccc(O)c(-c3cc(C(=O)O)ccn3)c2)cc1,0.069
21,O=C(O)c1ccnc(-c2cc(NC(=O)c3cccc(O)c3)ccc2O)c1,0.46
22,O=C(Cc1ccccc1)Nc1ccc(O)c(-c2cc(C(=O)O)ccn2)c1,0.43
23,O=C(O)Cn1nnnc1COc1ccccc1,2320
24,Nc1ccc(O)c(-c2cc(C(=O)O)ccn2)c1,8.3
25,O=C(Cc1cccc(Br)c1)Nc1ccc(O)c(-c2cc(C(=O)O)ccn2)c1,0.17
26,O=C(O)c1ccnc(-c2cc(NCc3cccc4c3OCO4)ccc2O)c1,0.56
27,COc1ccc(N)cc1-c1cc(C(=O)O)ccn1,310

# Tested on: not listed separately
# Assay: Induction of aggregates formation assessed as particle formation up to 10 uM by dynamic light scattering method
# Settings: not given
row,SMILES,Activity
1,Cn1nccc1CNc1ccc(O)c(C(=O)O)c1,inactive
2,COCC(=O)Nc1ccc(O)c(C(=O)O)c1,inactive
